# Test results taken from patent US10208011B2, “Benzothiophene estrogen receptor modulators” (G1 Therapeutics, Inc., priority 2017, dated 2019).
# Tests used:
# [1] = molecular target: human estrogen receptor (ERα) (Homo sapiens (Human), UniProt P03372); test: Human ERα Reporter Assay (Indigo Biosciences); type: cell-based; conditions: antagonist mode, 17β-estradiol 8E-10 M, 24 hours
# Protocol: All reagents used in this assay was supplied in the Human ERα Reporter Assay by Indigo Biosciences # IB00401. In an effort to screen selective estrogen receptor degraders (SERDs), the Human ERα Reporter Assay, supplied by Indigo Biosciences, was utilized to quantify antagonist functional activity against the human estrogen receptor. Reporter cells were thawed at 37° C. and added to pre-warmed to 37° C. cell recovery medium (CRM). Stock concentration of 17β-estradiol was serially diluted in CRM. Diluted 17β-estradiol was added to CRM containing reporter cells resulting in a working concentration of 1.6 nM (2×). Cells plus 17β-estradiol were dispensed in a kit-supplied white walled 96-well plate. Concentrated stocks of test compounds were diluted to 2× working concentrations in cell screening medium (CSM). 2× concentrated compounds were added to the plated cells in a dose-dependent manner resulting in a final concentration range of 1E-11 to 1E-5 M and a final 17β-estradiol concentration of 8E-10 M. Assay plates were incubated for 24 hours in a humidified 37° C. incubator. Culture medium was removed from the assay plates by inversion. Detection substrate and buffer was warmed to room temperature, mixed thoroughly, and immediately added to the assay plates. Assay plates were incubated for 15 minutes at room temperature protected from light. Luminescence was measured in a Synergy HTX luminescence plate reader. Data is processed utilizing GraphPad Prism 7 by graphing the relative light units measured at each compound concentration. This procedure was used to produce the graph in FIG. 1, FIG. 9, FIG. 10, FIG. 11, FIG. 12, FIG. 13, and FIG. 14.
# (§1) In the below table for the Estrogen Receptor Degradation Assay and the Human ERα Reporter Assay: […]
# [2] = molecular target: estrogen receptor α in MCF7 cells (Homo sapiens (Human), UniProt P03372); test: Estrogen Receptor (ER) Degradation Assay (In-Cell Western); type: cell-based; conditions: for IC50: 24 hours, In-Cell Western; for % Estrogen Receptor Remaining: vehicle set to 100%
# Protocol: A screening strategy was implemented utilizing an In-Cell Western assay to measure their ability to degrade the estrogen receptor in vitro. MCF7 cells, which are estrogen receptor positive, were plated at a cell density of […] into black walled clear bottom 96-well plates. Cells were incubated in phenol red free Dulbecco's Modified Eagle Media (DMEM) supplemented with 8% charcoal-stripped fetal bovine calf serum for 24 hours in a humidified 37° C. incubator. Concentrated stock compounds were diluted to 10× in complete media. Compounds were added to the plated cells in a dose-dependent manner ranging from 1E-12 to 1E-05 M and incubated for an additional 24 hours at 37° C. Culture medium was removed from the culture plates by gentle inversion. Cells were fixed in 4% paraformaldehyde in 1× phosphate buffered saline-calcium magnesium free (PBS-CMF) for 15 minutes at room temperature, washed 3 times for 5 minutes each in 1×PBS-CMF. Cells were permeabilized in immunofluorescence (IF) blocking buffer (Cell Signaling #12411) containing 0.3% Triton X100. Cells were washed 3 times for 5 minutes each in 1×PBS-CMF and incubated in estrogen receptor α (D6R2W) rabbit primary antibody (Cell Signaling #13258) diluted 1:300 in IF antibody dilution buffer (Cell Signaling #12378). Cells were washed 3 times for 5 minutes each in 1×PBS-CMF and stained with goat anti-rabbit (Biotium #CF770) secondary antibody diluted 1:2000 in IF antibody dilution buffer and normalizing stain CellTag 700 diluted 1:500 (Licor #926-41090). ER protein expression was assessed by the Licor Odyssey CLx imaging system using Image Studio v5.2. Data is processed utilizing GraphPad Prism 7 by subtracting background from the vehicle and setting the vehicle to 100% ER activity, followed by comparing treated samples to vehicle. This procedure was used to produce the graph in FIG. 2, FIG. 3, FIG. 4, FIG. 5, FIG. 6, FIG. 7, and FIG. 8.
# as §1
# Sequence of estrogen receptor α in MCF7 cells (P03372 whole entry): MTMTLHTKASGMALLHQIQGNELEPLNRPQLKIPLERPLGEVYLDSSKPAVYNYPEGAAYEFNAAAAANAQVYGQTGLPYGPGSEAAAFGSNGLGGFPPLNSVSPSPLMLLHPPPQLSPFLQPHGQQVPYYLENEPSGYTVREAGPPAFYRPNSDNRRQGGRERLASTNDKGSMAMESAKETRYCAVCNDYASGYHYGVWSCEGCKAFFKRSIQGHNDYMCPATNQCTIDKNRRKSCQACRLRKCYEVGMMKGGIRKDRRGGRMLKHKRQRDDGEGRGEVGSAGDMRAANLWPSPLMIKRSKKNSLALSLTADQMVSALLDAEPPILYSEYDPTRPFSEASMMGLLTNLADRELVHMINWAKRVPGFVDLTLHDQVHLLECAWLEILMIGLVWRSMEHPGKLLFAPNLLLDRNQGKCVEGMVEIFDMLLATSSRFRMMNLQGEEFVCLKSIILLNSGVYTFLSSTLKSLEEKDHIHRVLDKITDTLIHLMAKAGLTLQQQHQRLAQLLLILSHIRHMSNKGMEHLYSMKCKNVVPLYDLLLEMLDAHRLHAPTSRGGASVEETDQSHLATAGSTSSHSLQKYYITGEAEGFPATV
# Sequence of human estrogen receptor (ERα) (P03372 whole entry): as above
Structure (SMILES),IC50 [1],IC50 [2],% Estrogen Receptor Remaining [2]
"Cc1cc(F)cc(C)c1C(=O)c1sc2cc(O)ccc2c1-c1ccc(CCN2CC(CF)C2)cc1 [Compound 119, (4-fluoro-2,6-dimethylphenyl)(3-(4-(2-(3-(fluoromethyl)azetidin-1-yl)ethyl)phenyl)-6-hydroxybenzo[b]thiophen-2-yl)methanone]",< 1000 nM,< 1000 nM,*** (*** denotes 41-70% Estrogen Receptor remaining)
"Cc1cc(F)cc(C)c1C(=O)c1sc2cc(O)ccc2c1-c1ccc(OCCN2CC(CF)C2)cc1 [Compound 120, (4-f1uoro-2,6-dimethylphenyl)(3-(4-(2-(3-(fluoromethyl)azetidin-1-yl)ethoxy)phenyl)-6-hydroxybenzo[b]thiophen-2-yl)methanone]",< 50000 nM,< 1000 nM,*** (*** denotes 41-70% Estrogen Receptor remaining)
"Cc1cc(F)cc(C)c1C(=O)c1sc2cc(O)ccc2c1-c1ccc(OCCN2CCC(CF)C2)cc1 (stereo not drawn) [Compound 123, (4-fluoro-2,6-dimethylphenyl)(3-(4-(2-(3-(fluoromethyl)pyrrolidin-1-yl)ethoxy)phenyl)-6-hydroxybenzo[b]thiophen-2-yl)methanone]",< 50000 nM,< 1000 nM,*** (*** denotes 41-70% Estrogen Receptor remaining)
"Cc1cc(F)cc(C)c1C(=O)c1sc2cc(O)ccc2c1-c1ccc(OCCN2CCC(CF)CC2)cc1 [Compound 124, (4-fluoro-2,6-dimethylphenyl)(3-(4-(2-(4-(fluoromethyl)piperidin-1-yl)ethoxy)phenyl)-6-hydroxybenzo[b]thiophen-2-yl)methanone]",< 50000 nM,< 1000 nM,*** (*** denotes 41-70% Estrogen Receptor remaining)
